Entries after “also recorded” stand apart in the source; their conditions may differ. Structures can show the parent of a compound that is named as a salt.
Columns and labels:
[1] = Solubility of DMF in HPbCD, Captisol, saline and D5W at ambient temperature; type: physicochemical; conditions: thermodynamic from solid
Method: Solubility of DMF in these media was determined at ambient temperature by preparing a saturated solution.

[2] = MMF exposure in plasma and tissues after DMF PO/IV or MMF IV (LC-MS/MS); type: in vivo, C57BL/6 mice
Method: Aliquots (25 μL) of either plasma or tissue homogenate samples were extracted by protein precipitation with acetonitrile containing 4C13-MMF as the internal standard. For tissue samples, aliquots of homogenization solution (plasma with 12.5 mg/mL of NaF) were added to the tissue samples. The tissue samples were homogenized at 6.5 m/s for 60 seconds on a Fast Prep Tissue Homogenizer prior to protein precipitation. Concentrations of MMF in plasma, brain, jejunum and kidney samples were determined using qualified LC-MS/MS assays in the respective matrices. Data collections and integrations were accomplished using an API 5500 triple quadrupole mass spectrometer with a turbo ion spray interface (AB Sciex, Foster City, Calif.), and Analyst software (version 1.6.1). The peak area ratios of MMF relative to its internal standard were used to construct a standard curve using a quadratic regression with a 1/x^2 weighting. The lower limits of quantitation (LLOQ) were 1 ng/mL for the three tissue assays and 10 ng/mL for the plasma assay, respectively. The performances of the assays were monitored by the precision and accuracy of the standards and quality control samples.
MMF exposure levels were evaluated 10 minutes and 2 hours after dosing, while pharmacodynamic transcriptional responses were analyzed at 2 hours post-dose.
At the 10-minute time point, 4 animals from each group were sacrificed, with plasma and tissues (brain, jejunum and kidney) collected to determine MMF exposure. Two hours after dosing, the remaining 4 animals were sacrificed, and plasma and tissues were collected. Tissue samples from the 2-hour time point were divided, with half of each sample used for MMF exposure analysis, and half for RNA extraction and qRT-PCR to evaluate the expression of Nrf2 target genes.
MMF exposure levels were evaluated 10 minutes and 2 hours after dosing, while transcriptional pharmacodynamic responses were analyzed at 2 and 6 hours post-dose. A complete blood count (CBC) with differential panel was performed at 10 minutes, 2 hours, and 6 hours post-dose.
Ten minutes after dosing, 4 animals from each group were sacrificed, and plasma and tissues (brain, kidney, jejunum and spleen) were collected to quantify MMF exposure levels, as well as whole blood to perform CBC. Two hours post-dose, another 4 animals from each group were sacrificed, and plasma, whole blood, and tissues were collected. Tissue samples from the 2-hour time point were split, with half of each sample used for MMF exposure analysis, and half for RNA extraction/qRT-PCR to evaluate the expression of Nrf2 target genes. Six hours after dosing, the last 4 animals from each group were sacrificed, and whole blood and tissues were collected.

[3] = Solubility of DMF in aqueous media at 37° C.; type: physicochemical; conditions: thermodynamic from solid
[4] = MMF exposure in malonate model 30 min after last oral dose of DMF; type: in vivo, Sprague-Dawley rats; conditions: 30 minutes after last oral dose of DMF, all doses
Method: The study and blank brain samples was transferred into Tissue Tubes (TT1) (purchased from Covaris, Inc) and attached to a borosilicate glass tube and placed on dry ice for a minimum of 15 minutes. The samples were pulverized using the Cryoprep System (Covaris Inc.) and transferred to glass tube prior to homogenization. For every 1 part (i.e. 100 mg) of tissue, 2 parts (i.e. 200 μL) of water with 15 mg/mL NaF was added to each glass tube. The tissues were homogenized at 4° C. using Covaris E210 for approximately 3 minutes per sample. The Covaris settings were as follows: Duty Cycle 20%, Intensity 10, and Cycles/Burst 1000. After homogenization […] acetonitrile was added to each glass tube, which was equal to the volume of water added in previously. The homogenates were homogenized with the E210 for an additional 30 sec per sample. […]
Study plasma samples were on ice. […] A 50 μL aliquot of sample (study samples, blank control, calibration standard or QC sample) was manually transferred into a 96-well plate according to a pre-determined layout. […]
The HPLC system used consisted of an Agilent 1200 binary pump with a Leap CTC PAL refrigerated autosampler. […] The instrument was equipped with TIS source in negative mode and the analyte was monitored in the MRM mode. […] The concentrations for unknown samples were calculated against Standards. […]

[5] = Stability of DMF 20% Captisol solutions at ambient temperature (HPLC); type: physicochemical; conditions: for DMF area %: 20% Captisol
Description: Samples stored at ambient temperature were pulled at predetermined time points (0, 2 and 7 days), and analyzed by HPLC. [table]

Structure (SMILES): COC(=O)/C=C/C(=O)OC [DMF, dimethyl fumarate]
- solubility at 24 h ([1]; aqueous with cosolvent or surfactant or cyclodextrin, 40% Captisol, pH 4.42): 7900 µg/mL
- solubility at 24 h ([1]; pH 3.9, aqueous with cosolvent or surfactant or cyclodextrin, 40% HPbCD, pH 3.90): 15100 µg/mL
- solubility at 24 h ([1]; pH 4.3, aqueous with cosolvent or surfactant or cyclodextrin, 5% HPbCD, pH 4.30): 4030 µg/mL
- solubility at 24 h ([1]; pH 4.8, aqueous with cosolvent or surfactant or cyclodextrin, 5% Captisol, pH 4.80): 3180 µg/mL
- solubility at 24 h ([1]; saline or isotonic, D5W (5% Dextrose in water), pH 6.32): 2390 µg/mL
- solubility at 24 h ([1]; saline or isotonic, Saline (0.9% NaCl), pH 6.67): 2080 µg/mL
- MMF level in plasma ([2]; Study 1, IV DMF, 2 hours): no detectable MMF in plasma
- MMF level in any tissue ([2]; Study 1, PO or IV DMF, 2 hours): no detectable MMF in any tissue
- MMF level in plasma or any tissues ([2]; Study 2, 2 hours, DMF 30 mg/kg or MMF 27.08 mg/kg IV): no detectable MMF in plasma or in any tissues
- MMF levels in kidney, jejunum and spleen, DMF versus MMF ([2]; Study 2, IV, 10 minutes): no significant differences were noted in MMF levels
- solubility at 24 h ([3]; pH 2 citrate buffer, pH 2, aqueous buffer, pH 2 Citrate Buffer, pH 1.93, read-out: Solubility): 3770 µg/mL
- solubility at 24 h ([3]; pH 2 citrate buffer, pH 2, aqueous buffer, pH 2 Citrate Buffer, read-out: Solubility Description): 1000 to 10000 µg/mL
- solubility at 24 h ([3]; pH 4 citrate buffer, pH 4, aqueous buffer, pH 4 Citrate Buffer, pH 3.89, read-out: Solubility): 3320 µg/mL
- solubility at 24 h ([3]; pH 4 citrate buffer, pH 4, aqueous buffer, pH 4 Citrate Buffer, read-out: Solubility Description): 1000 to 10000 µg/mL
- solubility at 24 h ([3]; pH 6 citrate buffer, pH 6, aqueous buffer, pH 6 Citrate Buffer, pH 6.01, read-out: Solubility): 3470 µg/mL
- solubility at 24 h ([3]; pH 6 citrate buffer, pH 6, aqueous buffer, pH 6 Citrate Buffer, read-out: Solubility Description): 1000 to 10000 µg/mL
- solubility at 24 h ([3]; pH 8 borate buffer, pH 8, aqueous buffer, pH 8 Borate Buffer, pH 5.44, read-out: Solubility): 4020 µg/mL
- solubility at 24 h ([3]; pH 8 borate buffer, pH 8, aqueous buffer, pH 8 Borate Buffer, read-out: Solubility Description): 1000 to 10000 µg/mL
- solubility at 24 h ([3]; pH 10 borate buffer, pH 10, aqueous buffer, pH 10 Borate Buffer, pH 5.49, read-out: Solubility): 3570 µg/mL
- solubility at 24 h ([3]; pH 10 borate buffer, pH 10, aqueous buffer, pH 10 Borate Buffer, read-out: Solubility Description): 1000 to 10000 µg/mL
- solubility at 24 h ([3]; simulated gastric fluid (SGF, without pepsin), pH 6.9, simulated gastric fluid, SGF (without pepsin), pH 6.90, read-out: Solubility): 2950 µg/mL
- solubility at 24 h ([3]; simulated gastric fluid without pepsin, pH 1.2, simulated gastric fluid, SGF (without pepsin), read-out: Solubility Description): 1000 to 10000 µg/mL
- solubility at 24 h ([3]; simulated intestinal fluid (SIF, without pancreatin), pH 1.2, fassgf or other biorelevant, SIF (without pancreatin), pH 1.20, read-out: Solubility): 3110 µg/mL
- solubility at 24 h ([3]; simulated intestinal fluid without pancreatin, pH 6.9, fassgf or other biorelevant, SIF (without pancreatin), read-out: Solubility Description): 1000 to 10000 µg/mL
- solubility at 24 h ([3]; water, pH 5.2, water, Water, pH 5.20, read-out: Solubility): 2840 µg/mL
- solubility at 24 h ([3]; water, pH 5.2, water, Water, read-out: Solubility Description): 1000 to 10000 µg/mL
- MMF concentration in plasma, brain and CSF [4]: significantly higher in the plasma as compared to both, the Brain and the CSF; also recorded: dose-dependent increase in plasma, CSF and brain concentration of MMF
- Stability of DMF in 20% Captisol solution ([5]; 0.2 mg/ml): stable up to 2 days; also recorded: stable up to 2 d; also recorded: chemically and physically stable for 2 days
- DMF area % ([5]; 0.2 mg/ml, 2 d): 99.5 area %
- DMF area % ([5]; 0.2 mg/ml, 7 d): 97.2 area %
- DMF area % ([5]; 0.2 mg/ml, initial): 99.7 area %
- DMF area % ([5]; 4 mg/ml, 7 d): 99.4 area %
- DMF area % ([5]; 4 mg/ml, initial): 99.7 area %
